From patent US8796299B2, “NK1 antagonists” (OPKO Health, Inc., priority 2001, dated 2014)

Target: NK1 receptor (Homo sapiens, UniProt P25103)
Experiment: NK1 receptor binding: inhibition of Substance P binding, Ki from the 50% inhibition concentration
Details: average Ki for the NK1 receptor
Source text: Compounds having the formula (I) can be effective antagonists of the NK1 receptor, and of an effect of its endogenous agonist, Substance P, at the NK1 receptor site, and therefore, can be useful in treating conditions caused or aggravated by the activity of said receptor. The in vitro and in vivo NK1, NK2 and NK3 activities of the compounds having the formula (I) can be determined by various procedures known in the art, such as a test for their ability to inhibit the activity of the NK1 agonist Substance P. The percent inhibition of neurokinin agonist activity is the difference between the percent of maximum specific binding (“MSB”) and 100%. The percent of MSB is defined by the following equation, wherein “dpm” represents “disintegrations per minute”:
[formula] The concentration at which the compound produces 50% inhibition of binding is then used to determine an inhibition constant (“Ki”) using the Chang-Prusoff equation.
The activities (potencies) for the compounds of the invention are determined by measuring their Ki values. […] Even more preferred are compounds having average Ki values of from 0.01 nM to about 10 nM for the NK1 receptor. The most preferred compounds have NK1 average Ki values of from 0.01 nM to about 3 nM.

Sequence of NK1 receptor (P25103 whole entry, species assumed): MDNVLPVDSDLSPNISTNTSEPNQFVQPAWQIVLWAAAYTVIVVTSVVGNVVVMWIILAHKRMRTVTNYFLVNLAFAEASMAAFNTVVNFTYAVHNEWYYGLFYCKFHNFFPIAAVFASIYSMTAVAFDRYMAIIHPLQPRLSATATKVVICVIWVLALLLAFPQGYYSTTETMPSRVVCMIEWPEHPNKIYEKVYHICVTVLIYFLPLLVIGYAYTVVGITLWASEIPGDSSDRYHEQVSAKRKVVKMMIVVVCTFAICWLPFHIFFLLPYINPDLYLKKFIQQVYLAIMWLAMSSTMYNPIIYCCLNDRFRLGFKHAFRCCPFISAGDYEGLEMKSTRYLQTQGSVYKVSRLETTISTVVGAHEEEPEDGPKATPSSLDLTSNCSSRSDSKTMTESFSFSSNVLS

SMILES	Ki [pM]
C[C@@H](OC[C@@]1(c2ccccc2)CC[C@]2(CN1)NC(=O)NC2=O)c1cc(C(F)(F)F)cc(C(F)(F)F)c1 [Example 43b]	770
C[C@@H](OC[C@@]1(c2ccccc2)CC[C@]2(CCC(=O)N2)CN1)c1cc(C(F)(F)F)cc(C(F)(F)F)c1 [Example 72a]	660
C[C@@H](OC[C@@]1(c2ccccc2)CC[C@]2(CCCC(=O)N2)CN1)c1cc(C(F)(F)F)cc(C(F)(F)F)c1 [Example 110a]	410

Compounds with a lower Ki, results first:

Ki [pM]	SMILES
200	C[C@@H](OC[C@@]1(c2ccccc2)CC[C@@]2(CN1)COC(=O)N2)c1cc(C(F)(F)F)cc(C(F)(F)F)c1 [Example 73b]
100	C[C@@H](OC[C@@]1(c2ccccc2)CC[C@H](n2cn[nH]c2=O)CN1)c1cc(C(F)(F)F)cc(C(F)(F)F)c1 [Example 109]
380	C[C@@H](OC[C@@]1(c2ccccc2)CC[C@]2(CCOC(=O)N2)CN1)c1cc(C(F)(F)F)cc(C(F)(F)F)c1 [Example 111a]
